Test results: US20110207811A1, “USE OF CELIVARONE FOR REDUCING OCCURRENCES OF CARDIOVASCULAR HOSPITALIZATION” (SANOFI-AVENTIS, priority 2010, published 2011)

Tested on: ICD patients with a LVEF of 40% or less
Test: clinical study ALPHEE: prevention of cardiovascular hospitalization
Type: in vivo
Conditions: clinical trial using amiodarone as calibrator; oral, with a meal
Description: The primary objective of the study is to assess the efficacy of celivarone for the prevention of ICD interventions or death. The study also aims at assessing the usefulness of celivarone for reducing occurrences of cardiovascular hospitalization in treated patients.
This is a dose-finding multicenter, multinational, randomized, double blind, placebo controlled, parallel arm study including a positive control calibrator arm. Patients are randomized to one of three doses of celivarone or placebo or to the amiodarone calibrator arm.
The efficacy of celivarone is based on data regarding appropriate ICD intervention obtained by regular ICD interrogation, performed as described below, as well as on data regarding death of the randomized patients, in particular sudden death, and on data regarding cardiovascular hospitalization occurrences.
The study includes a one week screening period, followed by a treatment period scheduled for a minimum duration of 6 months for the last patient recruited and going from the first day of treatment to the end of treatment visit to be done 10-15 days prior to the scheduled study end date. […]
Cardiovascular hospitalization is an hospitalization with a cardiovascular cause, as assessed by the investigator. […]

CCCCc1oc2ccc(C(=O)OC(C)C)cc2c1C(=O)c1ccc(CCCN(CCCC)CCCC)cc1.O=C(O)/C=C/C(=O)O [celivarone, 2-butyl-3-[4-[3-(dibutylamino)propyl]benzoyl]-1-benzofuran-5-carboxylic acid isopropyl ester fumarate]
prevention of cardiovascular hospitalization: effective
